Measurements: patent publication US20040132771A1, “Compositions of choleseteryl ester transfer protein inhibitors and HMG-CoA reductase inhibitors” (Pfizer Inc, priority 2002, published 2004)
One block for each compound: values may come before it.

Key:
Format in all cases: physicochemical
[1] = in vitro dissolution test using a syringe method (Drug 2); details: for AUC / Drug 2 Concentration: PBS pH 6.5, 2 wt % NaTC/POPC
Experimental: An 8.0 mg sample of the adsorbate was added to 40 mL phosphate buffered saline (PBS) at pH 6.5 and 290 mOsm/kg, containing 2 wt % sodium taurocholic acid and 1-palmitoyl-2-oleyl-sn-glycero-3-phosphocholine (NaTC/POPC, with a 4/1 weight ratio). The concentration of drug would have been 50 μg/mL, if all of the drug had dissolved. The test solution was stirred at room temperature in a syringe equipped with a Gelman Acrodisc 13 CR 0.45 μm PTFE filter. At each sample time, about 2 mL of the test solution was pushed through the filter and analyzed using UV at a wavelength of 256 nm to determine the concentration of torcetrapib in solution. […] Crystalline torcetrapib alone is shown as a comparison.
Crystalline Drug 2 alone is shown as a comparison. In all cases, a sufficient amount of sample was added so that the concentration of drug would have been 50 μg/mL, if all of the drug had dissolved.

[2] = aqueous solubility of torcetrapib
[3] = in vitro dissolution test using a syringe method (torcetrapib); details: for Torcetrapib Concentration / AUC: PBS pH 6.5, 2 wt % NaTC/POPC
Experimental: An 8.0 mg sample of the adsorbate was added to 40 mL phosphate buffered saline (PBS) at pH 6.5 and 290 mOsm/kg, containing 2 wt % sodium taurocholic acid and 1-palmitoyl-2-oleyl-sn-glycero-3-phosphocholine (NaTC/POPC, with a 4/1 weight ratio). The concentration of drug would have been 50 μg/mL, if all of the drug had dissolved. The test solution was stirred at room temperature in a syringe equipped with a Gelman Acrodisc 13 CR 0.45 μm PTFE filter. At each sample time, about 2 mL of the test solution was pushed through the filter and analyzed using UV at a wavelength of 256 nm to determine the concentration of torcetrapib in solution. Samples were collected at 1, 2, 3, 5, 10, 15, 20, 30, 45, 60, and 90 minutes. Crystalline torcetrapib alone is shown as a comparison.
The dissolution rate constant was obtained by performing a least squares fit of the experimental data using the following equation: […]
In this test, 7.855 mg of the Solid Amorphous Adsorbate 2 was added to 40 mL phosphate buffered saline (PBS) at pH 6.5 and 290 mOsm/kg, containing 2 wt % NaTC/POPC (the concentration of drug would have been 49 μg/mL, if all of the drug had dissolved).

Dissolution Rate Constant, k ([1]; Drug 2): 0.005 min⁻¹ | AUC90 ([1]; Drug 2, area under the aqueous concentration versus time curve after 90 minutes): 383 µg·min/mL | AUC ([1]; Drug 2, time 0 min): 0 µg·min/mL | AUC ([1]; Drug 2, time 0.5 min): 0 µg·min/mL | AUC ([1]; Drug 2, time 5 min): 2.6 µg·min/mL | AUC ([1]; Drug 2, time 15 min): 17 µg·min/mL | AUC ([1]; Drug 2, time 45 min): 111 µg·min/mL | AUC ([1]; Drug 2, time 90 min): 383 µg·min/mL | MDC90 ([1]; maximum concentration of Drug 2 in solution during the first 90 minutes): 7.6 µg/mL | Drug 2 Concentration ([1]; time 0 min): 0 µg/mL | Drug 2 Concentration ([1]; time 0.5 min): 0.1 µg/mL | Drug 2 Concentration ([1]; time 5 min): 1.0 µg/mL | Drug 2 Concentration ([1]; time 15 min): 1.8 µg/mL | Drug 2 Concentration ([1]; time 45 min): 4.5 µg/mL | Drug 2 Concentration ([1]; time 90 min): 7.6 µg/mL
SMILES: CC[C@@H]1C[C@H](N(Cc2cc(C(F)(F)F)cc(C(F)(F)F)c2)C(=O)OC)c2cc(C(F)(F)F)ccc2N1C(=O)OC(C)C [Drug 2, [2R,4S]4-[(3,5-bis-trifluoromethyl-benzyl)-methoxycarbonyl-amino]-2-ethyl-6-trifluoromethyl-3,4-dihydro-2H-quinoline-1-carboxylic acid isopropyl ester]

solubility [2]: < 0.04 µg/mL | MDCmax,90 ([3]; maximum concentration of torcetrapib in solution during the first 90 minutes): <0.5 µg/mL | Torcetrapib Concentration ([3]; time 0 min): <0.5 µg/mL | Torcetrapib Concentration ([3]; time 1 min): <0.5 µg/mL | Torcetrapib Concentration ([3]; time 2 min): <0.5 µg/mL | Torcetrapib Concentration ([3]; time 3 min): <0.5 µg/mL | Torcetrapib Concentration ([3]; time 5 min): <0.5 µg/mL | Torcetrapib Concentration ([3]; time 10 min): <0.5 µg/mL | Torcetrapib Concentration ([3]; time 15 min): <0.5 µg/mL | Torcetrapib Concentration ([3]; time 20 min): <0.5 µg/mL | Torcetrapib Concentration ([3]; time 30 min): <0.5 µg/mL | Torcetrapib Concentration ([3]; time 45 min): <0.5 µg/mL | Torcetrapib Concentration ([3]; time 60 min): <0.5 µg/mL | Torcetrapib Concentration ([3]; time 90 min): <0.5 µg/mL | AUC90 ([3]; torcetrapib, area under the aqueous concentration versus time curve after 90 minutes): <45 min-μg/mL | Dissolution Rate Constant, k ([3]; torcetrapib, least squares fit of [D]t=[D]o(1−e^−kt)): <0.0005 min⁻¹ | AUC ([3]; torcetrapib, time 0 min): 0 µg·min/mL | AUC ([3]; torcetrapib, time 1 min): 0 µg·min/mL | AUC ([3]; torcetrapib, time 2 min): <1 µg·min/mL | AUC ([3]; torcetrapib, time 3 min): <1 µg·min/mL | AUC ([3]; torcetrapib, time 5 min): <2 µg·min/mL | AUC ([3]; torcetrapib, time 10 min): <5 µg·min/mL | AUC ([3]; torcetrapib, time 15 min): <7 µg·min/mL | AUC ([3]; torcetrapib, time 20 min): <10 µg·min/mL | AUC ([3]; torcetrapib, time 30 min): <15 µg·min/mL | AUC ([3]; torcetrapib, time 45 min): <22 µg·min/mL | AUC ([3]; torcetrapib, time 60 min): <30 µg·min/mL | AUC ([3]; torcetrapib, time 90 min): <45 µg·min/mL
SMILES: CCOC(=O)N1c2ccc(C(F)(F)F)cc2[C@@H](N(Cc2cc(C(F)(F)F)cc(C(F)(F)F)c2)C(=O)OC)C[C@H]1CC [torcetrapib, [2R,4S]-4-[(3,5-bis-trifluoromethyl-benzyl)-methoxycarbonyl-amino]-2-ethyl-6-trifluoromethyl-3,4-dihydro-2H-quinoline-1-carboxylic acid ethyl ester]
